Test results reported in patent publication US20130022684A1 (HANMI SCIENCE CO., LTD., priority 2010, published 2013).
In brackets after ≈: the same amount, converted by molar mass. Where two headings read alike, the source gives them in different places.

Tests used:
[1] = parameters: species or system SD rats; settings: rat, in vivo, po, 88 mg
Experimental: The microcapsules were orally administered to 7 week-old male SD rats (Sprague Dawley, Samtako, 4 rats per one group, 7 days feeding ad libitum) by using Sonde. Blood samples were taken from the rats in a predetermined time interval, and the respective pharmacokinetic profiles were evaluated.

physchem = settings: water, thermodynamic from solid
Experimental: Each of distilled water and artificial intestinal juice (pH 6.8; USP) was added thereto to fill 100 mL, and the mixture was vigorously blended for 1 hr and passed through a 0.45 μm filter, followed by HPLC analysis.

[2] = fenofibric acid in plasma; cited from earlier work

## CC(C)(Oc1ccc(C(=O)c2ccc(Cl)cc2)cc1)C(=O)[O-].C[N+](C)(C)CCO [Choline fenofibrate]
[1]
  AUC 0-24: 3477.7 ± 558.9 µg·h/mL
  Cmax: 309.4 ± 62.2 µg/mL

## CC(C)OC(=O)C(C)(C)Oc1ccc(C(=O)c2ccc(Cl)cc2)cc1 [Fenofibrate]
[1]; male, Sprague-Dawley
  AUC 0-24: 2078.3 ± 610.5 µg·h/mL
  Cmax: 137.2 ± 37.9 µg/mL

## CC(C)(Oc1ccc(C(=O)c2ccc(Cl)cc2)cc1)C(=O)O [Fenofibric acid, 2-[4-(4-chlorobenzoyl)phenoxy]-2-methyl-propanoic acid]
physchem
  solubility at 1 hr: 0.165 mg/mL (≈ 518 µM)
[1]; male, Sprague-Dawley
  AUC 0-24: 2742.2 ± 218.1 µg·h/mL
  Cmax: 209.3 ± 26.1 µg/mL
[2]
  half-life of elimination in plasma: about 20 hours
  time of peak plasma levels after administration: about 5 hours
